Like-named read-outs stand apart in the source and are kept apart here.
Key:
[1] = Separation recovery method I, water phase W1 (Co, Ni sulfates) mixed with kerosine oil phase of the metal extractant; conditions: maximum amount of metal ions extracted / total amount of the other metal ions extracted, mixing amount 0.5 equivalent
Protocol: 95.4 g of cobalt (II) sulfate heptahydrate (manufactured by FUJIFILM Wako Pure Chemicals Corporation) and 95.7 g of nickel (II) sulfate heptahydrate (manufactured by FUJIFILM Wako Pure Chemicals Corporation) were added to a 1L measuring flask, were diluted with ultrapure water, and were stirred and dissolved at 30° C. As a result, a metal ion-containing aqueous solution (W1) including two kinds of metal ions was prepared.
(§1) 12 mL of the extractant (Y1) with respect to 10 mL of the prepared metal ion-containing aqueous solution (W1) was added to a 30 mL vial tube, and the mixture was stirred using a stirrer tip at 25° C. for 30 minutes. In this case, the mixing amount (unit: equivalent) of the metal extractant with respect to the total content of metal ions to be coordinated (that have the same definition as the extracted metal ions; in Example 1, Co and Ni) was 0.5. Next, a 10 M sodium hydroxide aqueous solution or a 10 M hydrochloric acid was added to adjust the pH of the mixed solution to a value shown in the column “pH during Mixing” of Table 1-2. Further, the solution was stirred at 25° C. for 30 minutes, and was left to stand at the same temperature for 1 hour. After verifying that the solution was separated into two layers of the organic phase (oil phase) and the water phase, the separated water phase was extracted, and the separation and recovery of the metal ions was performed. The metal ions extracted in Example 1 and the metal ions extracted in the maximum amount are shown in the column “Kind” and the column “Maximum Amount Extracted” of the column “Extracted Metal Ions” in Table 1-2, respectively.
(§2) Separation and recovery of metal ions according to Examples 2 to 4 and 8 and Comparative Examples 1 to 6 and 9 were performed using the same method as that of Example 1, except that the metal ion-containing aqueous solution and the metal extractant solution were changed to a combination shown in Table 1-1 and Table 1-2 (hereinafter, both of which are referred to as Table 1″), the pH during the mixing of the water phase and the oil phase was set to a value shown in the column “pH during Mixing” of Table 1-2, and the mixing amount (unit: equivalent) of the metal extractant with respect to the total content of metal ions to be coordinated was set to a value shown in the column “Mixing Amount” of Table 1-2 for mixing and standing. The metal ions extracted in each of Examples and the metal ions extracted in the maximum amount are shown in the column “Kind” and the column “Maximum Amount Extracted” of the column “Extracted Metal Ions” in Table 1-2, respectively.
Regarding each of the water phases used in Examples and Comparative Examples and the water phases after the extraction, the pH was measured using a pH meter (SK-620 pH II, manufactured by SATOTECH), and each of the contents of dissolved metal ions was determined using an inductively coupled plasma-optical emission spectrometer (ICP-OES) (Optima 7300 D (trade name), manufactured by Perkin Elmer Co., Ltd.). Measured values of the pH of each of the water phases used in Examples and Comparative Examples and the content of dissolved metal ions in each of the water phases are shown in the column “Water Phase pH” of Table 1-2 and the column “Metal Ion Concentration (ppm)” of Table 1-1. The maximum amount (ppm) of the metal ions extracted measured as described above was divided by the total amount (ppm) of the other metal ions extracted to calculate a ratio between the amounts thereof extracted. […]

[2] = Separation recovery method I, water phase W3 (Zr, Rh sulfates) mixed with kerosine oil phase of the metal extractant; conditions: maximum amount of metal ions extracted / total amount of the other metal ions extracted, mixing amount 0.7 equivalent
Protocol: (§3) In addition, each of sulfates of a combination of metal ions shown in Table 1-1 was dissolved in ultrapure water to prepare each of metal ion-containing aqueous solutions (W2) and (W3) including two or three kinds of metal ions.
12 mL of the extractant (Y1) with respect to 10 mL of the prepared metal ion-containing aqueous solution (W1) was added to a 30 mL vial tube, and the mixture was stirred using a stirrer tip at 25° C. for 30 minutes. In this case, the mixing amount (unit: equivalent) of the metal extractant with respect to the total content of metal ions to be coordinated (that have the same definition as the extracted metal ions; in Example 1, Co and Ni) was 0.5. […]
Regarding each of the water phases used in Examples and Comparative Examples and the water phases after the extraction, the pH was measured using a pH meter (SK-620 pH II, manufactured by SATOTECH), and each of the contents of dissolved metal ions was determined using an inductively coupled plasma-optical emission spectrometer (ICP-OES) (Optima 7300 D (trade name), manufactured by Perkin Elmer Co., Ltd.). Measured values of the pH of each of the water phases used in Examples and Comparative Examples and the content of dissolved metal ions in each of the water phases are shown in the column “Water Phase pH” of Table 1-2 and the column “Metal Ion Concentration (ppm)” of Table 1-1. […]

[3] = Separation recovery method I, water phase W2 (Mn, Co, Ni sulfates) mixed with kerosine oil phase of the metal extractant; conditions: for Selection Ratio: W2, maximum amount of metal ions extracted / total amount of the other metal ions extracted, mixing amount 0.4 equivalent
Protocol: as §3, §1, §2
(§4) Regarding each of the water phases used in Examples and Comparative Examples and the water phases after the extraction, the pH was measured using a pH meter (SK-620 pH II, manufactured by SATOTECH), and each of the contents of dissolved metal ions was determined using an inductively coupled plasma-optical emission spectrometer (ICP-OES) (Optima 7300 D (trade name), manufactured by Perkin Elmer Co., Ltd.). Measured values of the pH of each of the water phases used in Examples and Comparative Examples and the content of dissolved metal ions in each of the water phases are shown in the column “Water Phase pH” of Table 1-2 and the column “Metal Ion Concentration (ppm)” of Table 1-1. The maximum amount (ppm) of the metal ions extracted measured as described above was divided by the total amount (ppm) of the other metal ions extracted to calculate a ratio between the amounts thereof extracted. The result is shown in the column “Selection Ratio” of Table 1-2.

[4] = Acid dissociation constant pKa by neutralization titration; format: physicochemical; conditions: for metal extractant II pKa of a conjugate acid
From the text: An acid dissociation constant pKa of the metal extractant is not particularly limited, and an appropriate value for the kind, the number, and the like of the coordinating functional groups can be adopted. In the present invention, the pKa is a value measured by neutralization titration.
In the present invention, the pKa is a value measured by neutralization titration.
Regarding the synthesized or prepared metal extractant, the molecular weight and the pKa calculated using the above-described method are shown in Table 1-2.

[5] = Separation recovery method II, water phase W4 (Co, Ni sulfates with lithium chloride) mixed with kerosine oil phase of the metal extractant; conditions: for Selection Ratio: W4, maximum amount of metal ions extracted / total amount of the other metal ions extracted, mixing amount 0.5 equivalent
Protocol: 200 g of lithium chloride (manufactured by FUJIFILM Wako Pure Chemical Corporation), 95.4 g of cobalt (II) sulfate heptahydrate (manufactured by FUJIFILM Wako Pure Chemicals Corporation), and 95.7 g of nickel (II) sulfate heptahydrate (manufactured by FUJIFILM Wako Pure Chemicals Corporation) were added to a 1L measuring flask, were diluted with ultrapure water, and were stirred and dissolved at 30° C. As a result, a metal ion-containing aqueous solution (W4) including two kinds of metal ions was prepared. In this aqueous solution, in the two kinds of metal ions (cobalt and nickel), complex ions to which halide ions were coordinated were formed.
12 mL of the extractant (Y3) with respect to 10 mL of the prepared metal ion-containing aqueous solution (W4) was added to a 30 mL vial tube, and the mixture was stirred using a stirrer tip at 25° C. for 30 minutes. In this case, the mixing amount (unit: equivalent) of the metal extractant to the total content of the metal ions was 0.5. Next, a 10 M sodium hydroxide aqueous solution or a 10 M hydrochloric acid was added to adjust the pH of the mixed solution to a value shown in the column “pH during Mixing” of Table 1-2. Further, the solution was stirred at 25° C. for 30 minutes, and was left to stand at the same temperature for 1 hour. After verifying that the solution was separated into two layers of the organic phase (oil phase) and the water phase, the separated water phase was extracted, and the separation and recovery of the metal ions was performed. The metal ions extracted in Example 5 and the metal ions extracted in the maximum amount are shown in the column “Kind” and the column “Maximum Amount Extracted” of the column “Extracted Metal Ions” in Table 1-2, respectively.
The separation and recovery of the metal ions according to Examples 6 and 7 and Comparative Examples 7 and 8 was performed using the same method as that of Example 5, except that the metal ion-containing aqueous solution and the extractant solution were changed to a combination shown in Table 1-2, and the pH during the mixing of the water phase and the oil phase was set to a value shown in the column “pH during Mixing” of Table 1 for mixing and standing. The metal ions extracted in each of Examples and the metal ions extracted in the maximum amount are shown in the column “Kind” and the column “Maximum Amount Extracted” of the column “Extracted Metal Ions” in Table 1-2, respectively.
as §4

[6] = room temperature, concentration 310 mM
Protocol: Each of the synthesized or prepared metal extractants was added to a 100 mL measuring flask, and was diluted using kerosine (manufactured by FUJIFILM Wako Pure Chemicals Corporation) at room temperature. As a result, metal extractant solutions (Y1) to (Y6) and (Ycl) to (Yc9) (concentration: 310 mM) including the metal extractants were prepared, respectively.

Compound	Selection Ratio [1]	Selection Ratio [3]	pKa ([4]; read-out: pKa)	Selection Ratio [5]	also measured
CCCCC(CC)CC(C(=O)O)N(CCN(CC(CC)CCCC)C(CC(CC)CCCC)C(=O)O)CC(CC)CCCC (stereo not drawn) [E-1]	10	20	6.1		Selection Ratio [2]: 6.7
CCCCC(CC)CCC(C(=O)O)N(CCN(CC(CC)CCCC)C(CCC(CC)CCCC)C(=O)O)CC(CC)CCCC (stereo not drawn) [E-2]	4.0		6.3		
CCCCC(CC)CN(CCN(CC(CC)CCCC)CC(CC)CCCC)CC(CC)CCCC (stereo not drawn) [E-3]			11.1	5.0	
CCCCCCCCCN(CCCCCCCCC)CCN(CCCCCCCCC)CCCCCCCCC [E-4]			11.4	3.3	
CCCCC(CC)CN(CC(CC)CCCC)CC1CCC(CN(CC(CC)CCCC)CC(CC)CCCC)CC1 (stereo not drawn) [E-5]			11.5	4.0	
CCCCC(CC)CN(CCN(CC(CC)CCCC)C(CCCOCCOC)C(=O)O)C(CCCOCCOC)C(=O)O (stereo not drawn) [E-6]	5.0		6.2		
O=C(O)CN(CCN(CC(=O)O)CC(=O)O)CC(=O)O [EDTA, ethylenediaminetetraacetic acid]			0.9		dissolution in kerosine [6]: not able to be dissolved in kerosine; extraction of metal ions to the oil phase ([3]; W2, in words): not able to be extracted
CCCCC(CC)COP(=O)(O)CC(CC)CCCC (stereo not drawn) [PC-88A, mono-2-ethylhexyl(2-Ethylhexyl)phosphonate]		1.4			selectivity of the Mn ions extracted in the maximum amount ([3]; W2, in words): low
CCCCC(CC)CN(CC(CC)CCCC)C(=O)CN(CCN(CC(=O)O)CC(=O)N(CC(CC)CCCC)CC(CC)CCCC)CC(=O)O (stereo not drawn) [T-1]		0.5	6		selectivity of the Mn ions extracted in the maximum amount ([3]; W2, in words): low
CCCCC(CC)CN(CC(CC)CCCC)C(=O)CNCC(=O)O (stereo not drawn) [T-2]		0.6	5.2		
CCCCC(CC)CC(OCCOC(CC(CC)CCCC)C(=O)O)C(=O)O (stereo not drawn) [T-3]	1.1		5.8		
CCCCC(CC)COCCOCC(CC)CCCC (stereo not drawn) [T-4]			13.4	1.5	amount of the metal ions extracted in the maximum amount ([5]; W4, in words): not sufficient
CCCCC(CC)CC(C(=O)O)N(CCC(C)SC)CCN(CCC(C)SC)C(CC(CC)CCCC)C(=O)O (stereo not drawn) [T-5]	1.2		6.1		
CCCCC(CC)CN(CC(CC)CCCC)CC(CC)CCCC (stereo not drawn) [Tris-2-EHA, tris(2-ethylhexyl)amine]			5.2	1.5	
Versatic acid 10 [VA-10]		0.7			selectivity of the Mn ions extracted in the maximum amount ([3]; W2, in words): low; pKa [4]: 7.9

— patent US20250243560A1, “METAL EXTRACTANT AND SEPARATION RECOVERY METHOD OF METAL IONS USING METAL EXTRACTANT” (FUJIFILM Corporation, priority 2022, published 2025)
